Assay [1] deals with ABUTH. In words: Pre-emergence herbicidal action. It counts as in vivo, Abutilon theophrasti. The following applies: pre-emergence comparative experiment, 320 g/ha. An excerpt:
(§1) 1. Pre-Emergence Herbicidal Action and Crop Plant Compatibility
(§2) Seeds of monocotyledonous and dicotyledonous weed plants and crop plants are placed in plastic or organic planting pots and covered with soil. The compounds of the invention, formulated in the form of wettable powders (WP) or as emulsion concentrates (EC), are then applied onto the surface of the covering soil as aqueous suspension or emulsion with addition of 0.5% additive at a water application rate of 600 l/ha (converted). After the treatment, the pots are placed in a greenhouse and kept under good growth conditions for the trial plants. After about 3 weeks, the effect of the preparations is scored visually in comparison with untreated controls as percentages. The tables below show the herbicidal activity of numerous compounds according to the invention against important harmful plants. For example, 100% activity=the plants have died, 0% activity=like control plants.

The subject of assay [2] is ALOMY. In words: Pre-emergence herbicidal action. It counts as in vivo, Alopecurus myosuroides. Particulars: pre-emergence comparative experiment, 320 g/ha.
Excerpt: as §1, §2

For assay [3], the system named is AVEFA. Briefly: Pre-emergence herbicidal action. In kind it is in vivo, Avena fatua. Particulars: pre-emergence comparative experiment, 320 g/ha.
Excerpt: as §1, §2

The subject of the next assay is MATIN. In words: Pre-emergence herbicidal action. In kind it is in vivo, Matricaria inodora. Particulars: pre-emergence comparative experiment, 320 g/ha.
Excerpt: as §1, §2

The test system of a further assay is SETVI. In words: Pre-emergence herbicidal action. The following applies: pre-emergence comparative experiment, 320 g/ha. In kind it is in vivo, Setaria viridis.
Excerpt: as §1, §2

For assay [4], the system named is ABUTH. Briefly: Post-emergence herbicidal action. In kind it is in vivo, Abutilon theophrasti. The following applies: post-emergence comparative experiment, 80 g/ha. How it is done:
(§3) 2. Post-Emergence Herbicidal Action and Crop Plant Compatibility
(§4) Seeds of monocotyledonous and dicotyledonous weeds and crop plants are placed in sandy loam in plastic or organic planting pots, covered with soil and cultivated in a greenhouse under controlled growth conditions. 2 to 3 weeks after sowing, the test plants are treated at the one-leaf stage. The compounds of the invention, formulated in the form of wettable powders (WP) or as emulsion concentrates (EC), are then sprayed onto the green parts of the plants as aqueous suspension or emulsion with addition of 0.5% additive at a water application rate of […] (converted). After the test plants had been kept in the greenhouse under optimum growth conditions for about 3 weeks, the activity of the preparations is rated visually in comparison to untreated controls. The tables below show the herbicidal activity of numerous compounds according to the invention against important harmful plants. For example, 100% activity=the plants have died, 0% activity=like control plants.

In assay [5] the test system is ALOMY. Briefly: Post-emergence herbicidal action. In kind it is in vivo, Alopecurus myosuroides. Particulars: post-emergence comparative experiment, 80 g/ha. How it is done:
as §3, §4

Assay [6] concerns AVEFA. In words: Post-emergence herbicidal action. It counts as in vivo, Avena fatua. Particulars: post-emergence comparative experiment, 80 g/ha. How it is done:
as §3, §4

A further assay concerns LOLMU. In words: Post-emergence herbicidal action. In kind it is in vivo, Lolium multiflorum. The following applies: post-emergence comparative experiment, 80 g/ha. How it is done:
as §3, §4

The next assay concerns POLCO. In words: Post-emergence herbicidal action. In kind it is in vivo, Polygonum convolvulus. Particulars: post-emergence comparative experiment, 80 g/ha. How it is done:
as §3, §4

Assay [7] relates to numerous harmful plants. In words: Pre-emergence comparative experiment, herbicidal activity. In kind it is in vivo.
Excerpt: as §2, with “control plants. In a comparative experiment, by way of example, the herbicidal activity of compound No. 2-53 according to the invention was compared to that of compound No. A-117 known from WO 2013/076315 A2.” for “control plants.”

For assay [8], the system named is numerous harmful plants. In words: Post-emergence comparative experiment, herbicidal activity. It counts as in vivo. How it is done: as §4, with “control plants. In a comparative experiment, by way of example, the herbicidal activity of compound No. 2-53 according to the invention was compared to that of compound No. A-117 known from WO 2013/076315 A2.” for “control plants.”

The source of these data is patent US11897904B2, “Herbicidally active bicyclic benzamides” (Bayer Aktiengesellschaft, priority 2017, dated 2024).

Molecules are shown by their SMILES.

Consider `Cn1nnnc1NC(=O)c1ccc(C(F)(F)F)c2c1OCS2` [Example 2-53, 4-(trifluoromethyl)-1,3-benzoxathiolane-N-(1-methyltetrazol-5-yl)-7-carboxamide], for which the “Herbicidal action against ABUTH” value came out at 90% in the assay with ABUTH [1] and 80% with ABUTH [4]. Besides, the “Herbicidal action against ALOMY” value with ALOMY [2] turned out to be 30%; in the assay on ALOMY [5], 80%. The “Herbicidal action against AVEFA” value in the assay on AVEFA [3] came out at 60%; with AVEFA [6], 100%. Besides, in the assay on MATIN, the “Herbicidal action against MATIN” value turned out to be 90%. Further, in the assay with SETVI, the “Herbicidal action against SETVI” value stood at 80%. Further, the “Herbicidal action against LOLMU” value in the assay on LOLMU is 70%. Besides, in the assay on POLCO, the “Herbicidal action against POLCO” value turned out to be 80%. The “herbicidal activity compared to that of compound No. A-117” value in the assay with numerous harmful plants [7] and in the assay with numerous harmful plants [8] was “superiority” throughout.
